Measurements from PubChem BioAssay (NCI).
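Exposure lasted 48 hours, with cells grown in 96-well plates and compounds tested at five concentrations. At the TGI there is no net growth.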

Assays:
Test in all cases: NCI anticancer screen, dose series, 48 h
OVCAR-8 ovarian = test system: OVCAR-8 ovarian
SK-OV-3 ovarian = test system: SK-OV-3 ovarian
KM20L2 colon = test system: KM20L2 colon
UO-31 renal = test system: UO-31 renal
NCI-H23 lung = test system: NCI-H23 lung
RPMI-8226 leukemia = test system: RPMI-8226 leukemia
OVCAR-4 ovarian = test system: OVCAR-4 ovarian
MCF7 breast = test system: MCF7 breast
MDA-MB-231 breast = test system: MDA-MB-231 breast
DLD-1 colon = test system: DLD-1 colon
RXF 393 renal = test system: RXF 393 renal
786-0 renal = test system: 786-0 renal
SK-MEL-28 melanoma = test system: SK-MEL-28 melanoma
KM12 colon = test system: KM12 colon
EKVX NSCLC = test system: EKVX NSCLC
MDA-N = test system: MDA-N
HOP-62 NSCLC = test system: HOP-62 NSCLC
LOX IMVI melanoma = test system: LOX IMVI melanoma
DMS 273 small cell lung = test system: DMS 273 small cell lung
M19-MEL melanoma = test system: M19-MEL melanoma
NCI-H522 lung = test system: NCI-H522 lung
A498 renal = test system: A498 renal
A549 NSCLC = test system: A549 NSCLC
SK-MEL-2 melanoma = test system: SK-MEL-2 melanoma
IGROV1 ovarian = test system: IGROV1 ovarian
HCT-116 colon = test system: HCT-116 colon
T-47D breast = test system: T-47D breast
XF 498 CNS = test system: XF 498 CNS
SK-MEL-5 melanoma = test system: SK-MEL-5 melanoma
CCRF-CEM leukemia = test system: CCRF-CEM leukemia
COLO 205 colon = test system: COLO 205 colon
TK-10 renal = test system: TK-10 renal
HOP-92 NSCLC = test system: HOP-92 NSCLC
NCI-H460 lung = test system: NCI-H460 lung
SF-295 CNS = test system: SF-295 CNS
HT29 colon = test system: HT29 colon
U251 CNS = test system: U251 CNS
MOLT-4 leukemia = test system: MOLT-4 leukemia
SR leukemia = test system: SR leukemia
LXFL 529 NSCLC = test system: LXFL 529 NSCLC
BT-549 breast = test system: BT-549 breast
MDA-MB-435 = test system: MDA-MB-435
SW-620 colon = test system: SW-620 colon
HS 578T breast = test system: HS 578T breast
SNB-75 CNS = test system: SNB-75 CNS
SF-268 CNS = test system: SF-268 CNS
NCI/ADR-RES ovarian = test system: NCI/ADR-RES ovarian
PC-3 prostate = test system: PC-3 prostate
OVCAR-5 ovarian = test system: OVCAR-5 ovarian
ACHN renal = test system: ACHN renal
SN12C renal = test system: SN12C renal
DU-145 prostate = test system: DU-145 prostate
HL-60(TB) leukemia = test system: HL-60(TB) leukemia
CAKI-1 renal = test system: CAKI-1 renal
SNB-19 CNS = test system: SNB-19 CNS
DMS 114 small cell lung = test system: DMS 114 small cell lung
HCT-15 colon = test system: HCT-15 colon
UACC-62 melanoma = test system: UACC-62 melanoma
MALME-3M melanoma = test system: MALME-3M melanoma
K-562 leukemia = test system: K-562 leukemia
UACC-257 melanoma = test system: UACC-257 melanoma
HCC-2998 colon = test system: HCC-2998 colon
NCI-H226 lung = test system: NCI-H226 lung
SF-539 CNS = test system: SF-539 CNS
M14 melanoma = test system: M14 melanoma
OVCAR-3 ovarian = test system: OVCAR-3 ovarian
SNB-78 CNS = test system: SNB-78 CNS

Measured: TGI

Nc1nc(N)c(CCCCc2ccccc2)c(N)n1
> 100 µM: OVCAR-8 ovarian | SK-OV-3 ovarian | KM20L2 colon | UO-31 renal | NCI-H23 lung | RPMI-8226 leukemia | OVCAR-4 ovarian | MCF7 breast | MDA-MB-231 breast | DLD-1 colon | RXF 393 renal | 786-0 renal | SK-MEL-28 melanoma | KM12 colon | EKVX NSCLC | MDA-N | HOP-62 NSCLC | LOX IMVI melanoma | DMS 273 small cell lung | M19-MEL melanoma | NCI-H522 lung | A498 renal | A549 NSCLC | SK-MEL-2 melanoma | IGROV1 ovarian | HCT-116 colon | T-47D breast | XF 498 CNS | SK-MEL-5 melanoma | CCRF-CEM leukemia | COLO 205 colon | TK-10 renal | HOP-92 NSCLC | NCI-H460 lung | SF-295 CNS | HT29 colon | U251 CNS | MOLT-4 leukemia | SR leukemia | LXFL 529 NSCLC | BT-549 breast | MDA-MB-435 | SW-620 colon | HS 578T breast | SNB-75 CNS | SF-268 CNS | NCI/ADR-RES ovarian | PC-3 prostate | OVCAR-5 ovarian | ACHN renal | SN12C renal | DU-145 prostate | HL-60(TB) leukemia | CAKI-1 renal | SNB-19 CNS | DMS 114 small cell lung | HCT-15 colon | UACC-62 melanoma | MALME-3M melanoma | K-562 leukemia | UACC-257 melanoma | HCC-2998 colon | NCI-H226 lung | SF-539 CNS | M14 melanoma | OVCAR-3 ovarian

NC1=NC(=O)C(CC(=O)Nc2ccc(Cl)cc2Cl)S1 (stereo not given)
> 100 µM: OVCAR-8 ovarian | SK-OV-3 ovarian | KM20L2 colon | UO-31 renal | NCI-H23 lung | RPMI-8226 leukemia | OVCAR-4 ovarian | DLD-1 colon | 786-0 renal | SK-MEL-28 melanoma | KM12 colon | EKVX NSCLC | HOP-62 NSCLC | LOX IMVI melanoma | DMS 273 small cell lung | M19-MEL melanoma | A498 renal | A549 NSCLC | SK-MEL-2 melanoma | IGROV1 ovarian | XF 498 CNS | SK-MEL-5 melanoma | CCRF-CEM leukemia | COLO 205 colon | TK-10 renal | NCI-H460 lung | SF-295 CNS | HT29 colon | U251 CNS | MOLT-4 leukemia | LXFL 529 NSCLC | SW-620 colon | SNB-75 CNS | SF-268 CNS | OVCAR-5 ovarian | ACHN renal | SN12C renal | CAKI-1 renal | SNB-19 CNS | HCT-15 colon | UACC-62 melanoma | MALME-3M melanoma | K-562 leukemia | UACC-257 melanoma | SNB-78 CNS | HCC-2998 colon | SF-539 CNS | M14 melanoma | OVCAR-3 ovarian
